Test results reported in publication PMC11714206, “Massively Parallel Screening of Toll/Interleukin‐1 Receptor (TIR)‐Derived Peptides Reveals Multiple Toll‐Like Receptors (TLRs)‐Targeting Immunomodulatory Peptides” (Advanced Science, 2024).
Each block holds one sequence with its values, some of them ahead of it.

Molecular target: T1, MyD88^TIR (Homo sapiens, UniProt Q99836)
T1 construct: MyD88 (residues 148–296); 6xHis; made in house; host or cells: E. coli BL21 (DE3)
Experiment: T‐Surf phage library (P8 and P3) selection against MyD88^TIR, four rounds, NGS read counts
Type: binding
Conditions: for Population: 4th round of selection against MyD88 TIR, share of NGS reads; for P8_MyD88 Rank (after) / P8_MyD88 Rank (before): P8 library; for P3_MyD88 Rank (after) / P3_MyD88 Rank (before): P3 library
Method in brief: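 Four panning rounds on TIR domain adsorbed at 5 µg mL^−1; binding 1 h at 20–22 °C, elution with 100 mM HCl. Output: NGS read counts of round‐4 pools versus naïve library.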

[1] = P8_MyD88: rank by NGS read count after grouping
[2] = P8_MyD88: rank by NGS read count before grouping
[3] = P3_MyD88 pool: P3 T-Surf phage library
[4] = P3_MyD88: rank by count after grouping
[5] = P3_MyD88: rank by count before grouping
[6] = P8_MyD88: rank by count after grouping
[7] = P8_MyD88: rank by count before grouping
[8] = P8_MyD88 pool: P8 T-Surf phage library
[9] = selection against MyD88 TIR, rank by count after grouping
[10] = selection against MyD88 TIR, rank by count before grouping
[11] = selection against MyD88, rank by count after grouping
[12] = selection against MyD88, rank by count before grouping
[13] = 4R selection against MyD88, rank after grouping
[14] = 4R selection against MyD88, rank before grouping
[15] = selection against MyD88, rank after grouping
[16] = selection against MyD88, rank before grouping

T1 sequence (Q99836 148-296): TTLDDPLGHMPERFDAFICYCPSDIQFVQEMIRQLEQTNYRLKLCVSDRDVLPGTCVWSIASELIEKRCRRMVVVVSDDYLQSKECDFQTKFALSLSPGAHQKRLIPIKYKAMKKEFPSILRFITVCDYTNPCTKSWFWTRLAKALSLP

Sequence: YPQDLQWLYERLGSLI
- Rank (after) [1]: 892
- Rank (before) [2]: 2104

Sequence: YTALTNICFHTFRDND
- Rank (after) [4]: 178
- Rank (before) [5]: 1654

Sequence: PQDLDWFYERLVSLL
- Rank (after) [6]: 101
- Rank (before) [7]: 120
- Population [8]: 0.0189%

Sequence: KEREFGAQRAGKWRAA
- P3_MyD88 Rank (after) [13]: 670
- P3_MyD88 Rank (before) [14]: 3663

Sequence: LGYHWIDWEYFVGIEDPIT
- P8_MyD88 Rank (after) [13]: 660
- P8_MyD88 Rank (before) [14]: 3261

Sequence: DVLYWALTEAGIRVFR
- Rank (after) [6]: 119
- Rank (before) [7]: 128
- Population [8]: 0.015%

Sequence: DWVWVYRLPNLEGPAG
- Rank (after) [1]: 979
- Rank (before) [2]: 2403

Sequence: LGYHWNDREYFLDIED
- P8_MyD88 Rank (after) [15]: 536
- P8_MyD88 Rank (before) [16]: 3307

Sequence: WALNELLKILQAKIFL
- Rank (after) [1]: 905
- Rank (before) [2]: 1547

Sequence: DPQDLDWFYERLLSR
- P8_MyD88 Rank (after) [9]: 236
- P8_MyD88 Rank (before) [10]: 467

Sequence: KEVEGWRDALYEAANLS
- P3_MyD88 Rank (after) [11]: 684
- P3_MyD88 Rank (before) [12]: 3620

Sequence: NHHLDLPRGKAIKPEILG
- Population [3]: 0.00524%

Sequence: DPQVLVWLYERPFRQI
- P8_MyD88 Rank (after) [13]: 629
- P8_MyD88 Rank (before) [14]: 2644

Sequence: VGKLKKGESFAPELLR
- P3_MyD88 Rank (after) [9]: 229
- P3_MyD88 Rank (before) [10]: 1765

Sequence: LGYHCMDWEYFVGIED
- Rank (after) [6]: 390
- Rank (before) [7]: 3228

Sequence: NPADLDWFYERLVSLF
- Rank (after) [1]: 939
- Rank (before) [2]: 3878

Sequence: LGYHGIDWVYFGGIED
- P8_MyD88 Rank (after) [15]: 565
- P8_MyD88 Rank (before) [16]: 3316

Sequence: PQELEWCYERLVSLIL
- P8_MyD88 Rank (after) [9]: 240
- P8_MyD88 Rank (before) [10]: 3497

Sequence: YLQDLDWFYERLVSLF
- Rank (after) [6]: 478
- Rank (before) [7]: 2080

Sequence: SWYLDEVAKIIDAMKE
- Rank (after) [6]: 133
- Rank (before) [7]: 144
- Population [8]: 0.0116%

Sequence: KNLFNELVSKNIVPL
- P3_MyD88 Rank (after) [11]: 686
- P3_MyD88 Rank (before) [12]: 3755

Sequence: DPQELQWIYERLVSLF
- P8_MyD88 Rank (after) [11]: 759
- P8_MyD88 Rank (before) [12]: 3018

Sequence: DHHLDLPRGKEIKPELLG
- P3_MyD88 Rank (after) [9]: 245
- P3_MyD88 Rank (before) [10]: 2038

Sequence: LGYHWIDWENLVGFED
- P8_MyD88 Rank (after) [13]: 630
- P8_MyD88 Rank (before) [14]: 3283

Sequence: WDFASNMEQLWERLYY
- Rank (after) [1]: 1014
- Rank (before) [2]: 1625

Sequence: DPQDLGWFYERLISQILK
- P8_MyD88 Rank (after) [13]: 624
- P8_MyD88 Rank (before) [14]: 2726

Sequence: NQWRKALTSAANLSGW
- P3_MyD88 Rank (after) [11]: 703
- P3_MyD88 Rank (before) [12]: 3528

Sequence: PSEVRKQTGSLAKALRRNCC
- P3_MyD88 Rank (after) [9]: 254
- P3_MyD88 Rank (before) [10]: 1130

Sequence: IDDHHLTFLVSLLLSL
- Rank (after) [1]: 975
- Rank (before) [2]: 3651

Sequence: LKVESWRQALEKAGN
- Rank (after) [4]: 126
- Rank (before) [5]: 1081

Sequence: SSRWALDELVHIMQAL
- Rank (after) [6]: 161
- Rank (before) [7]: 179
- Population [8]: 0.00771%

Sequence: DPPLLHGLYERLVILF
- P8_MyD88 Rank (after) [15]: 485
- P8_MyD88 Rank (before) [16]: 2602

Sequence: DRQDLVWPYERLVSLL
- P8_MyD88 Rank (after) [11]: 698
- P8_MyD88 Rank (before) [12]: 2599

Sequence: YTELTSSGFHTFRDND
- P3_MyD88 Rank (after) [9]: 198
- P3_MyD88 Rank (before) [10]: 1713

Sequence: DLVWDYLLPNLAGPAG
- Rank (after) [1]: 967
- Rank (before) [2]: 2386

Sequence: DPHDLVWFYERLVSLF
- P8_MyD88 Rank (after) [9]: 230
- P8_MyD88 Rank (before) [10]: 2631

Sequence: DPQDLEWFYERLLAR
- P8_MyD88 Rank (after) [15]: 515
- P8_MyD88 Rank (before) [16]: 2879

Sequence: NGHENEIIKEIVETIV
- P3_MyD88 Rank (after) [9]: 205
- P3_MyD88 Rank (before) [10]: 3381

Sequence: DQHRDLPRGKAIKPEILG
- Rank (after) [4]: 168
- Rank (before) [5]: 2067

Sequence: RFWERLRYMIPEVSHQ
- P3_MyD88 Rank (after) [13]: 598
- P3_MyD88 Rank (before) [14]: 2545

Sequence: SSFRERLWRLLELIKK
- P3_MyD88 Rank (after) [13]: 644
- P3_MyD88 Rank (before) [14]: 3246

Sequence: DYASNTFLLRELLQIA
- P8_MyD88 Rank (after) [11]: 746
- P8_MyD88 Rank (before) [12]: 2543

Sequence: YLQWGYSWFWDRLRFA
- P3_MyD88 Rank (after) [9]: 259
- P3_MyD88 Rank (before) [10]: 1558

Results, then the sequence that gave them:

- Population [3]: 0.0032%
Sequence: KEVEGWRDALTKVATI

- P8_MyD88 Rank (after) [9]: 226
- P8_MyD88 Rank (before) [10]: 385
Sequence: AFSHWALVELLEAIEQ

- P8_MyD88 Rank (after) [11]: 713
- P8_MyD88 Rank (before) [12]: 2590
Sequence: DLLVLEWFYERVFSQM

- Rank (after) [1]: 878
- Rank (before) [2]: 1395
Sequence: WAFASNMAQFWDRLYS

- Population [3]: 0.0032%
Sequence: SSFREGRWRLLELSKK

- Rank (after) [6]: 134
- Rank (before) [7]: 158
- Population [8]: 0.00925%
Sequence: WWIQALAEVANMAGED

- P3_MyD88 Rank (after) [13]: 648
- P3_MyD88 Rank (before) [14]: 3394
Sequence: NELLHVWSSKANSLEG

- Rank (after) [6]: 188
- Rank (before) [7]: 237
Sequence: TEPADTAFWDALWNKL

- Rank (after) [4]: 103
- Rank (before) [5]: 542
Sequence: KNLFNELVSKNIRTL

- Rank (after) [1]: 927
- Rank (before) [2]: 3199
Sequence: EPPGLDWVYERLVVLF

- Rank (after) [4]: 152
- Rank (before) [5]: 2117
Sequence: EHHLDLPRGKAIKPAILG

- Rank (after) [6]: 456
- Rank (before) [7]: 1901
Sequence: YASSSWALNELLEILDAKETM

- Rank (after) [1]: 1001
- Rank (before) [2]: 3022
Sequence: DPQLLDWFYVRLVSLL

- P3_MyD88 Rank (after) [15]: 506
- P3_MyD88 Rank (before) [16]: 1489
Sequence: YAFTGHLCRCLVLRGA

- P8_MyD88 Rank (after) [9]: 261
- P8_MyD88 Rank (before) [10]: 2737
Sequence: DPQDLDLFYERLVRLF

- Rank (after) [1]: 1004
- Rank (before) [2]: 2741
Sequence: DPQDLDCYYERLVSLF

- Rank (after) [1]: 884
- Rank (before) [2]: 3218
Sequence: LGYYWNDWEYVVGIEE

- P3_MyD88 Rank (after) [9]: 244
- P3_MyD88 Rank (before) [10]: 2040
Sequence: DHHLDLPRGKPIKREILG

- P8_MyD88 Rank (after) [9]: 223
- P8_MyD88 Rank (before) [10]: 2678
Sequence: DPQGLGWFYERLVSLF

- P3_MyD88 Rank (after) [15]: 529
- P3_MyD88 Rank (before) [16]: 2378
Sequence: LSRVPSGHVIPGFVAI

- P8_MyD88 Rank (after) [11]: 692
- P8_MyD88 Rank (before) [12]: 1687
Sequence: YYFTIGIAKRKLSRK

- P3_MyD88 Rank (after) [13]: 588
- P3_MyD88 Rank (before) [14]: 3169
Sequence: SSFREGLWRLLELRKN

- Rank (after) [4]: 480
- Rank (before) [5]: 3075
Sequence: SLRQNLVSNLLEEFKR

- Rank (after) [6]: 454
- Rank (before) [7]: 1898
Sequence: YASSSWALEELVKIMEAM

- Rank (after) [1]: 1027
- Rank (before) [2]: 3043
Sequence: DPKDLQWFYERLVSLF

- Rank (after) [6]: 108
- Rank (before) [7]: 114
- Population [8]: 0.02%
Sequence: QDLGWFYERLISQILK

- P3_MyD88 Rank (after) [9]: 251
- P3_MyD88 Rank (before) [10]: 1559
Sequence: YLQWGYPCFWDRLRFA

- Rank (after) [1]: 885
- Rank (before) [2]: 3614
Sequence: IAADHLSYLGRLLLSR
